Structures are written as SMILES. Structures can show the parent of a compound that is named as a salt.

The experiment has as its target T1, TNKS2 (Homo sapiens, UniProt Q9H2K2).
T1 sequence (Q9H2K2 1-1166): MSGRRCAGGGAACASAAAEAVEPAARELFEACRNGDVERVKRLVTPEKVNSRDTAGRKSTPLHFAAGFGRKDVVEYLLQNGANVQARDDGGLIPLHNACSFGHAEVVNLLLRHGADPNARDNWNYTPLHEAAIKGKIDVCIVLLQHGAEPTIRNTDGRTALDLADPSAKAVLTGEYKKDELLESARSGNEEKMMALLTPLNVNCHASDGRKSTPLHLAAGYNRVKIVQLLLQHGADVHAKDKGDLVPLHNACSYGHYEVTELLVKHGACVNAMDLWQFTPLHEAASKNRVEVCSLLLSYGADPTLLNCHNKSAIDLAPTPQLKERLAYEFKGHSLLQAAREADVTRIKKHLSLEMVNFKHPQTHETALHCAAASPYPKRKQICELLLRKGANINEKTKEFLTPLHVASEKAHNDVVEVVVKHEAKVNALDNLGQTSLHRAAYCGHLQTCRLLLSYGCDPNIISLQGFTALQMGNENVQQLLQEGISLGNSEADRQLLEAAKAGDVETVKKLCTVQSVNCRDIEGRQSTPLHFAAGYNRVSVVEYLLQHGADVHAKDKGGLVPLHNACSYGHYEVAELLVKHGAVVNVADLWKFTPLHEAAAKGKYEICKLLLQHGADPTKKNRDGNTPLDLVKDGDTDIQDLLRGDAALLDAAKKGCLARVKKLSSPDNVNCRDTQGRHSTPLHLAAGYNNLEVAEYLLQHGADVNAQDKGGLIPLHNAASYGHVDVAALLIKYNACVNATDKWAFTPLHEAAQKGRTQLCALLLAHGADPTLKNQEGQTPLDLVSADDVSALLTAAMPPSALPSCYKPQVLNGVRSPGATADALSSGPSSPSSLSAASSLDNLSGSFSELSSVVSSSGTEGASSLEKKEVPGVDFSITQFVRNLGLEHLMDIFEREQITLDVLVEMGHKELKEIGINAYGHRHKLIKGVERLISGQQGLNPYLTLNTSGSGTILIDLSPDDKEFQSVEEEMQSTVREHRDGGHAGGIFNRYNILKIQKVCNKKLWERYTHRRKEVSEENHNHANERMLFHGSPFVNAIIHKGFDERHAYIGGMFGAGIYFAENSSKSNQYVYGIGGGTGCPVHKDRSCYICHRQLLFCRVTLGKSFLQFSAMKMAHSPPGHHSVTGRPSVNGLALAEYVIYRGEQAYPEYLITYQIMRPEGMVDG
The experiment is described as follows: Modified TNKS2 Assay 3 (BPS kit #80578, biotin-NAD+, 96 well). The format is biochemical. Conditions: human TNKS2, BPS kit #80578, 96 well. A digest of the protocol:
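Commercial kit assay measuring TNKS2-catalysed incorporation of biotin-labelled NAD+ into a protein substrate, detected by streptavidin-HRP chemiluminescence. Run per manufacturer's protocol; IC50 is the concentration halving the normalised signal.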
The IC50 is the concentration at which inhibition is half-maximal. Read a low IC50 as inhibition by little substance. As for `O=C(Nc1ccc(NC(=O)c2nc[nH]c2C(=O)NCC2CCCO2)cc1)c1ccc(F)cc1Cl` (stereo not shown) [Example 237, N^4-{4-[(2-chloro-4-fluorobenzoyl)amino]phenyl}-N^5-(tetrahydrofuran-2-ylmethyl)-1H-imidazole-4,5-dicarboxamide], the IC50 was 230 nM.

In turn, `COC(=O)c1nc[nH]c1C(=O)Nc1ccc(NC(=O)c2ccc(F)cc2Cl)cc1` [Example 13, Methyl 5-({4-[(2-chloro-4-fluorobenzoyl)amino]phenyl}carbamoyl)-1H-imidazole-4-carboxylate] came in with an IC50 of 20 nM.

Compound `CCN1CCC[C@H]1CNC(=O)c1nc[nH]c1C(=O)Nc1ccc(NC(=O)c2ccc(F)cc2Cl)cc1` [Example 404, N^5-{4-[(2-chloro-4-fluorobenzoyl)amino]phenyl}-N^4-{[(2S)-1-ethylpyrrolidin-2-yl]methyl}-1H-imidazole-4,5-dicarboxamide] came in with an IC50 of 0.7 nM.

`CC(C)[C@@H](C)NC(=O)c1[nH]cnc1C(=O)Nc1ccc(NC(=O)c2ccc(F)cc2Cl)cc1` [Example 134, N^4-{4-[(2-chloro-4-fluorobenzoyl)amino]phenyl}-N^5-[(2R)-3-methylbutan-2-yl]-1H-imidazole-4,5-dicarboxamide] yielded an IC50 of 510 nM.

For `CC(C)(N)CCNC(=O)c1[nH]cnc1C(=O)Nc1ccc(NC(=O)c2ccc(F)cc2Cl)cc1` [Example 286, N^5-(3-amino-3-methylbutyl)-N^4-{4-[(2-chloro-4-fluorobenzoyl)amino]phenyl}-1H-imidazole-4,5-dicarboxamide], the IC50 was determined as 10 nM.

Consider `O=C(Nc1ccc(NC(=O)c2nc[nH]c2C(=O)NCCN2CCC(F)(F)CC2)cc1)c1ccc(F)cc1Br` [Example 215, N^4-{4-[(2-bromo-4-fluorobenzoyl)amino]phenyl}-N^5-[2-(4,4-difluoropiperidin-1-yl)ethyl]-1H-imidazole-4,5-dicarboxamide], for which the IC50 amounted to 120 nM.

In the case of `O=C(Nc1ccc(NC(=O)c2ocnc2C(=O)NCCN2CC[C@H](F)C2)cc1)c1ccc(F)cc1Cl` [Example 221, N^5-{4-[(2-chloro-4-fluorobenzoyl)amino]phenyl}-N^4-{2-[(3S)-3-fluoropyrrolidin-1-yl]ethyl}-1,3-oxazole-4,5-dicarboxamide], the IC50 amounted to 490 nM.

With `O=C(Nc1ccc(NC(=O)c2nc[nH]c2C(=O)NCCN2CCC[C@@H](F)C2)cc1)c1ccc(F)cc1Cl` [Example 277, N^4-{4-[(2-chloro-4-fluorobenzoyl)amino]phenyl}-N^5-{2-[(3R)-3-fluoropiperidin-1-yl]ethyl}-1H-imidazole-4,5-dicarboxamide], half-maximal inhibition (IC50) required 30 nM.

In turn, `O=C(Nc1ccc(NC(=O)c2[nH]cnc2C(=O)NC2CC2)cc1)c1ccc(F)cc1Cl` [Example 45, N^5-{4-[(2-chloro-4-fluorobenzoyl)amino]phenyl}-N^4-cyclopropyl-1H-imidazole-4,5-dicarboxamide] displayed an IC50 of 40 nM.

`CNC(=O)c1nc[nH]c1C(=O)Nc1ccc(NC(=O)c2ccc(C#N)cc2F)cc1` [Example 369, N^5-{4-[(4-cyano-2-fluorobenzoyl)amino]phenyl}-N^4-methyl-1H-imidazole-4,5-dicarboxamide] yielded an IC50 of 40 nM.

The compound `O=C(Nc1ccc(NC(=O)c2nc[nH]c2C(=O)N[C@@H]2CCNC2)cc1)c1ccc(F)cc1Cl` [Example 282, N^4-{4-[(2-chloro-4-fluorobenzoyl)amino]phenyl}-N^5-[(3R)-pyrrolidin-3-yl]-1H-imidazole-4,5-dicarboxamide hydrochloride salt] gave an IC50 of 10 nM.

For `O=C(Nc1ccc(NC(=O)c2nc[nH]c2C(=O)N2CC3(COC3)C2)cc1)c1ccc(F)cc1Cl` [Example 145, N-{4-[(2-chloro-4-fluorobenzoyl)amino]phenyl}-5-(2-oxa-6-azaspiro[3.3]hept-6-ylcarbonyl)-1H-imidazole-4-carboxamide], the IC50 is > 500 nM.

Regarding `CN(C)CCNC(=O)c1ncoc1C(=O)Nc1ccc(NC(=O)c2ccc(F)cc2Cl)cc1` [Example 31, N^5-{4-[(2-chloro-4-fluorobenzoyl)amino]phenyl}-N^4-[2-(dimethylamino)ethyl]-1,3-oxazole-4,5-dicarboxamide], it took 130 nM to reach half-maximal inhibition (IC50).

The compound `CCc1nc(C(=O)Nc2ccc(NC(=O)c3ccc(F)cc3Cl)cc2)c(C(=O)NCCN2CCCCC2)[nH]1` [Example 70, N^4-{4-[(2-chloro-4-fluorobenzoyl)amino]phenyl}-2-ethyl-N^5-[2-(piperidin-1-yl)ethyl]-1H-imidazole-4,5-dicarboxamide] yielded an IC50 of 20 nM.

For `O=C(Nc1ccc(NC(=O)c2nc[nH]c2C(=O)NCC2CCOC2)cc1)c1ccc(F)cc1Cl` (stereo not shown) [Example 235, N^4-{4-[(2-chloro-4-fluorobenzoyl)amino]phenyl}-N^5-(tetrahydrofuran-3-ylmethyl)-1H-imidazole-4,5-dicarboxamide], half-maximal inhibition (IC50) was put at 150 nM.

`COc1cc(NC(=O)c2[nH]cnc2C(=O)NCCN2CCCCC2)ccc1NC(=O)c1ccccc1Cl` [Example 101, N^5-{4-[(2-chlorobenzoyl)amino]-3-methoxyphenyl}-N^4-[2-(piperidin-1-yl)ethyl]-1H-imidazole-4,5-dicarboxamide] gave an IC50 of 10 nM.

Consider `CNC(=O)c1nc[nH]c1C(=O)Nc1ccc(NC(=O)c2ccc(F)cc2Cl)c(OC)c1` [Example 95, N^5-{4-[(2-chloro-4-fluorobenzoyl)amino]-3-methoxyphenyl}-N^4-methyl-1H-imidazole-4,5-dicarboxamide], for which the IC50 was determined as 60 nM.

Consider `O=C(Nc1ccc(NC(=O)c2nc[nH]c2C(=O)NCCN2CCOCC2)cc1)c1ccc(F)cc1Cl` [Example 227, N^4-{4-[(2-chloro-4-fluorobenzoyl)amino]phenyl}-N^5-[2-(morpholin-4-yl)ethyl]-1H-imidazole-4,5-dicarboxamide], for which the IC50 stood at 20 nM.

The compound `O=C(Nc1ccc(NC(=O)c2nc[nH]c2C(=O)NCCN2CCC[C@H](O)C2)cc1)c1ccc(F)cc1Cl` [Example 271, N^4-{4-[(2-chloro-4-fluorobenzoyl)amino]phenyl}-N^5-{2-[(3S)-3-hydroxypiperidin-1-yl]ethyl}-1H-imidazole-4,5-dicarboxamide] came in with a concentration for half-maximal inhibition (IC50) of 2 nM.

As to `O=C(Nc1ccc(NC(=O)c2nc[nH]c2C(=O)NCCN2CCC(F)(F)CC2)cc1)c1ccccc1Cl` [Example 214, N^4-{4-[(2-chlorobenzoyl)amino]phenyl}-N^5-[2-(4,4-difluoropiperidin-1-yl)ethyl]-1H-imidazole-4,5-dicarboxamide], the IC50 was 70 nM.

Compound `O=C(Nc1ccc(NC(=O)c2nc[nH]c2C(=O)NC2CCOCC2)cc1)c1ccc(F)cc1Cl` [Example 234, N^4-{4-[(2-chloro-4-fluorobenzoyl)amino]phenyl}-N^5-(tetrahydro-2H-pyran-4-yl)-1H-imidazole-4,5-dicarboxamide] registered an IC50 of 20 nM.

Take `O=C(Nc1ccc(NC(=O)c2nc[nH]c2C(=O)NCC(F)F)cc1)c1ccc(F)cc1Cl` [Example 139, N^4-{4-[(2-chloro-4-fluorobenzoyl)amino]phenyl}-N^5-(2,2-difluoroethyl)-1H-imidazole-4,5-dicarboxamide]: the IC50 worked out at 350 nM.

`C[C@H]1CCCCN1CCNC(=O)c1[nH]cnc1C(=O)Nc1ccc(NC(=O)c2ccc(F)cc2Cl)cc1` [Example 266, N^4-{4-[(2-chloro-4-fluorobenzoyl)amino]phenyl}-N^5-{2-[(25)-2-methylpiperidin-1-yl]ethyl}-1H-imidazole-4,5-dicarboxamide formic acid salt] showed an IC50 of 0.9 nM.

In the case of `CC(CN1CCOCC1)NC(=O)c1[nH]cnc1C(=O)Nc1ccc(NC(=O)c2ccc(F)cc2)cc1` (single isomer, unassigned; enantiomer 2) [Example 296, N^4-{4-[(4-fluorobenzoyl)amino]phenyl}-N^5-[1-(morpholin-4-yl)propan-2-yl]-1H-imidazole-4,5-dicarboxamide (enantiomer 2)], the IC50 is > 500 nM.

For the compound `O=C(Nc1ccc(NC(=O)c2ocnc2C(=O)NCCN2CC[C@@H](F)C2)cc1)c1ccc(F)cc1Cl` [Example 222, N^5-{4-[(2-chloro-4-fluorobenzoyl)amino]phenyl}-N^4-{2-[(3R)-3-fluoropyrrolidin-1-yl]ethyl}-1,3-oxazole-4,5-dicarboxamide], inhibition was half-maximal at 190 nM (IC50).

Values taken from patent US9884063B2, “Amido-substituted azole compounds” (Bayer Pharma Aktiengesellschaft, priority 2014, dated 2018).
